In the OligoGym collection one finds target mRNA inhibition data, which are given here for 99 sequences.

Where “and” joins values, the source holds several entries; their conditions need not be identical. Identical values can stand only once. After the bases stand the sugars from the 5' end (letter, count) and the backbone: PS all phosphorothioate, else s phosphorothioate and o phosphodiester by linkage. Methylation of C is not given here. k = constrained ethyl (cEt); d = 2'-deoxy (DNA)

The target of this data set is MALAT1. The following applies: ASO, A431, 0.005 µM.
Consider CAGGATCATTAAGCCA (sugars k3 d10 k3, PS), for which the target mRNA inhibition was determined as 42%.

On to CAGGCGAGCTGAGGCT (sugars k3 d10 k3, PS), for which the target mRNA inhibition is 7%.

For CAGGTCATCTATTCAC (sugars k3 d10 k3, PS), the target mRNA inhibition is 51% and 72%.

For CAGTACGAAACTCCCC (sugars k3 d10 k3, PS), the target mRNA inhibition was 30%.

As for CAGTCCTAGCTTCATC (sugars k3 d10 k3, PS), the target mRNA inhibition amounted to 9%.

Consider CAGTCCTTTTAGTAGC (sugars k3 d10 k3, PS), for which the target mRNA inhibition amounted to 57%.

Regarding CATAGTTCAACCCACC (sugars k3 d10 k3, PS), the target mRNA inhibition was 35%.

With CATATTTAACTTCCCC (sugars k3 d10 k3, PS), the target mRNA inhibition stood at 25%.

With CATCAAGGATGTATAT (sugars k3 d10 k3, PS), the target mRNA inhibition was -4%.

On to CATCAGAAGAAATCCC (sugars k3 d10 k3, PS), for which the target mRNA inhibition was found to be 17%.

With CATGGAAAGCGAGTTC (sugars k3 d10 k3, PS), the target mRNA inhibition was 20%.

As to CATTAAAGAGTGTTCG (sugars k3 d10 k3, PS), the target mRNA inhibition came to 34%.

As for CATTCTAATAGCAGCG (sugars k3 d10 k3, PS), the target mRNA inhibition is 51% and 68%.

In the case of CATTTCTCCAATGGAC (sugars k3 d10 k3, PS), the target mRNA inhibition was 12%.

Consider CATTTTGCCCTTAGCT (sugars k3 d10 k3, PS), for which the target mRNA inhibition stood at 54%.

Take CCAAAGACCTCGACAC (sugars k3 d10 k3, PS): the target mRNA inhibition is 13%.

For CCAAATTGCACTCGCT (sugars k3 d10 k3, PS), the target mRNA inhibition turned out to be 36%.

With CCAAGACAGCCACACG (sugars k3 d10 k3, PS), the target mRNA inhibition is 10%.

On to CCAATGGACATCTCTT (sugars k3 d10 k3, PS), for which the target mRNA inhibition was 40%.

Regarding CCACACACTACCATAT (sugars k3 d10 k3, PS), the target mRNA inhibition is 17%.

As for CCACAGGAACAAGTCC (sugars k3 d10 k3, PS), the target mRNA inhibition was -5%.

Regarding CCACCAATCCCAACCG (sugars k3 d10 k3, PS), the target mRNA inhibition came to 26%.

Take CCACGAACTGCTGCTT (sugars k3 d10 k3, PS): the target mRNA inhibition was 54%.

On to CCACTGGTGAATTCAA (sugars k3 d10 k3, PS), for which the target mRNA inhibition amounted to 55%.

Take CCACTTACTGGTTTAA (sugars k3 d10 k3, PS): the target mRNA inhibition turned out to be 33%.

Take CCAGCAAAATGTACTC (sugars k3 d10 k3, PS): the target mRNA inhibition came out at 46%.

CCAGCATTACAGTTCT (sugars k3 d10 k3, PS): the target mRNA inhibition was determined as 42%.

Take CCAGGATTAATGTAGT (sugars k3 d10 k3, PS): the target mRNA inhibition was 71% and 55%.

Turning to CCAGTAGGCCAGACCA (sugars k3 d10 k3, PS), the target mRNA inhibition was 13%.

As for CCATCATACTGCCAGG (sugars k3 d10 k3, PS), the target mRNA inhibition was determined as 17%.

For the sequence CCATGGTTGTCCTACT (sugars k3 d10 k3, PS), the target mRNA inhibition was determined as 10%.

Regarding CCCAACTGCTTGCAGT (sugars k3 d10 k3, PS), the target mRNA inhibition came out at 9%.

With CCCAAGATTGCCCCAA (sugars k3 d10 k3, PS), the target mRNA inhibition was -7%.

As for CCCAATGGAGGTATGA (sugars k3 d10 k3, PS), the target mRNA inhibition came out at 23%.

As for CCCCAACTAAACATAC (sugars k3 d10 k3, PS), the target mRNA inhibition was found to be 26%.

On to CCCCCAACTGCTTGCA (sugars k3 d10 k3, PS), for which the target mRNA inhibition was 29%.

Consider CCCCCCAAGATTGCCC (sugars k3 d10 k3, PS), for which the target mRNA inhibition was 14%.

On to CCCCCGGAACTTTTAA (sugars k3 d10 k3, PS), for which the target mRNA inhibition was -12%.

On to CCCCGGAACTTTTAAA (sugars k3 d10 k3, PS), for which the target mRNA inhibition was 23%.

Take CCCGCCTCAGTTACAC (sugars k3 d10 k3, PS): the target mRNA inhibition was found to be 4%.

For the sequence CCCTACTGAAGAGCAT (sugars k3 d10 k3, PS), the target mRNA inhibition was determined as 13%.

With CCCTGTTAAGACCATC (sugars k3 d10 k3, PS), the target mRNA inhibition is 21%.

CCCTTTACACCTCAGT (sugars k3 d10 k3, PS): the target mRNA inhibition was determined as 25%.

As for CCGACCTCACGGATTT (sugars k3 d10 k3, PS), the target mRNA inhibition was found to be 39%.

On to CCGCACAGCTCGGGCG (sugars k3 d10 k3, PS), for which the target mRNA inhibition amounted to 14%.

Regarding CCGCCGCCTTTGTGAG (sugars k3 d10 k3, PS), the target mRNA inhibition was determined as 25%.

Turning to CCGGAACTTTTAAAAT (sugars k3 d10 k3, PS), the target mRNA inhibition amounted to 13%.

In the case of CCGTAACAGGCCACTG (sugars k3 d10 k3, PS), the target mRNA inhibition worked out at 30%.

With CCGTTGGCTGCCAGTG (sugars k3 d10 k3, PS), the target mRNA inhibition was 6%.

With CCTAACATGCAATACT (sugars k3 d10 k3, PS), the target mRNA inhibition was found to be 12%.

For CCTAGCTTCACCACCA (sugars k3 d10 k3, PS), the target mRNA inhibition was 33%.

Regarding CCTATCTTCACCACGA (sugars k3 d10 k3, PS), the target mRNA inhibition came out at 6%.

Take CCTGAAGTCAAGACAA (sugars k3 d10 k3, PS): the target mRNA inhibition amounted to 0%.

Take CCTGCGACTTGCTCCC (sugars k3 d10 k3, PS): the target mRNA inhibition is 20%.

Consider CCTGTGGTGGTCTGAT (sugars k3 d10 k3, PS), for which the target mRNA inhibition was determined as 54%.

CCTTATTTAGAGGGCC (sugars k3 d10 k3, PS): the target mRNA inhibition is 33%.

Take CCTTCGGTGCCTTTAG (sugars k3 d10 k3, PS): the target mRNA inhibition turned out to be 12%.

As for CCTTTACACCTCAGTA (sugars k3 d10 k3, PS), the target mRNA inhibition amounted to 13%.

On to CCTTTTAAAGTAGACC (sugars k3 d10 k3, PS), for which the target mRNA inhibition was -22%.

Consider CCTTTTCTAACATAGT (sugars k3 d10 k3, PS), for which the target mRNA inhibition is 23%.

As to CGAAGACACAGAGACC (sugars k3 d10 k3, PS), the target mRNA inhibition was found to be 10%.

Take CGAGTTCAAGTGGCCT (sugars k3 d10 k3, PS): the target mRNA inhibition worked out at 18%.

As to CGCAATTCTCCCTGCG (sugars k3 d10 k3, PS), the target mRNA inhibition was determined as 23%.

CGCACTGGCTCCTGGA (sugars k3 d10 k3, PS): the target mRNA inhibition turned out to be 49%.

With CGCCAACACAGTTTGC (sugars k3 d10 k3, PS), the target mRNA inhibition is 12%.

As to CGCCTGCTACCTTCAT (sugars k3 d10 k3, PS), the target mRNA inhibition was determined as 30%.

On to CGCTTTCCCTGTGGCC (sugars k3 d10 k3, PS), for which the target mRNA inhibition is -2%.

On to CGGAAATTTTTCTACC (sugars k3 d10 k3, PS), for which the target mRNA inhibition amounted to 8%.

Regarding CGGAATTCGATCACCT (sugars k3 d10 k3, PS), the target mRNA inhibition worked out at 19%.

For the sequence CGGGATCAGAACAGTA (sugars k3 d10 k3, PS), the target mRNA inhibition was found to be 24%.

Take CGTATTTATAGACGGA (sugars k3 d10 k3, PS): the target mRNA inhibition is -9%.

On to CGTCATGGATTTCAAG (sugars k3 d10 k3, PS), for which the target mRNA inhibition turned out to be 40%.

Take CGTGTGGTTGCCAAGC (sugars k3 d10 k3, PS): the target mRNA inhibition turned out to be 45%.

Take CTAAACAATTACCTAA (sugars k3 d10 k3, PS): the target mRNA inhibition came to 3%.

CTAAAGGCTTCAGTCC (sugars k3 d10 k3, PS): the target mRNA inhibition is 23%.

Consider CTAAATCATTGGGAGT (sugars k3 d10 k3, PS), for which the target mRNA inhibition worked out at 48%.

As for CTAACATAGTTCAACC (sugars k3 d10 k3, PS), the target mRNA inhibition is 16%.

In the case of CTAACTTCTGCACCAC (sugars k3 d10 k3, PS), the target mRNA inhibition was found to be 38%.

As to CTACTCCAAGCATTGG (sugars k3 d10 k3, PS), the target mRNA inhibition stood at 27%.

For CTACTGGCTGCATCGA (sugars k3 d10 k3, PS), the target mRNA inhibition amounted to 54%.

For CTATAGCATCTGTGGA (sugars k3 d10 k3, PS), the target mRNA inhibition was determined as 29%.

As for CTATATAAGGTCAATA (sugars k3 d10 k3, PS), the target mRNA inhibition turned out to be 16%.

As to CTATATTTAAGGCCTT (sugars k3 d10 k3, PS), the target mRNA inhibition is 26%.

Regarding CTATCTTCTATACTTC (sugars k3 d10 k3, PS), the target mRNA inhibition was determined as 24%.

Consider CTATTGGTATTAATTC (sugars k3 d10 k3, PS), for which the target mRNA inhibition stood at 7%.

Regarding CTCAATCCACTTGATC (sugars k3 d10 k3, PS), the target mRNA inhibition was found to be 32%.

CTCACAAAACCCCCGG (sugars k3 d10 k3, PS): the target mRNA inhibition was found to be 18%.

As to CTCAGTTACACATCCA (sugars k3 d10 k3, PS), the target mRNA inhibition is 70% and 94%.

With CTCCATGGTTGTCCTA (sugars k3 d10 k3, PS), the target mRNA inhibition came out at 39%.

Consider CTCCCCCAACTGCTTG (sugars k3 d10 k3, PS), for which the target mRNA inhibition came out at 22%.

Consider CTCTGATCATAATCTC (sugars k3 d10 k3, PS), for which the target mRNA inhibition turned out to be 35%.

In the case of CTCTGCATCTAGGCCA (sugars k3 d10 k3, PS), the target mRNA inhibition turned out to be 40%.

Take CTGACTTTGTATGTAA (sugars k3 d10 k3, PS): the target mRNA inhibition was 51%.

CTGAGGCAAACGAAAC (sugars k3 d10 k3, PS): the target mRNA inhibition was -6%.

CTGAGTGAAGTGTACT (sugars k3 d10 k3, PS): the target mRNA inhibition worked out at 48%.

CTGATAAACTCACTGC (sugars k3 d10 k3, PS): the target mRNA inhibition worked out at 48%.

Turning to CTGATAACGAAGAGAT (sugars k3 d10 k3, PS), the target mRNA inhibition is -3%.

For CTGATTATCCTGATAT (sugars k3 d10 k3, PS), the target mRNA inhibition was determined as 33%.

Consider CTGCAATCATAAACTA (sugars k3 d10 k3, PS), for which the target mRNA inhibition was 10%.
